In patent US20230357310A1, “Saponin derivatives with improved therapeutic window” (priority 2019, published 2023):

Columns and labels:
[1] = system: EGFR expressing cells (HeLa); assay: cells; conditions: summary statement in the description
[2] = Critical micellar concentration (ANS fluorescence); type: physicochemical; conditions: comparison in words
Procedure: The critical micellar concentration (CMC) of saponins derived from Saponaria officinalis (SO) (Table A7) and derived from Quillaja saponaria (QS) (Table A8, and Table A9) was determined by the method of DeVendittis et al. (A fluorimetric method for the estimation of the critical micelle concentration of surfactants, Analytical Biochemistry, Volume 115, Issue 2, August 1981, Pages 278-286) as follows:
The emission spectrum of 8-Anilinonaphthalene-1-sulfonic acid (ANS) in either purified water (MQ) or PBS (Dulbecco's PBS+/+) was determined at dry weight concentrations of saponins ranging from 1 to 1400 μM to cover the range below and above the CMC. Above the CMC, the fluorescence yield of ANS increases and the wavelength of maximum emission decreases due to portioning of the fluorescent dye into micelles. Fluorescence yields were recorded on a Fluoroskan Ascent FL (Thermo Scientific) at an excitation wavelength of 355 nm, and an emission wavelength of 460 nm. 6 μg at a concentration of 75.86 μM of ANS were used per sample and measurement.

Compound | endosomal escape enhancing activity (enhancement of cytotoxicity of ADC / effector molecules) [1] | CMC compared with native (underivatised) saponin [2]
CC(=O)OC1C(C)OC(OC2C(C)OC(OC(=O)[C@]34CCC(C)(C)CC3C3=CCC5[C@@]6(C)CC[C@H](OC7OC(C(=O)O)C(O)C(OC8OCC(O)C(O)C8O)C7OC7OC(CO)C(O)C(O)C7O)[C@@](C)(CO)C6CC[C@@]5(C)[C@]3(C)C[C@H]4O)C(OC3OC(C)C(OC4OCC(O)C(OC5OC(CO)C(O)C(O)C5O)C4O)C(O)C3O)C2O)C(O)C1OC1OCC(O)C(O)C1O (stereo partly drawn) [Molecule 6] | have the capacity to enhance the cytotoxic effect | increased CMC
CC1OC(OC2C(C)OC(OC(=O)[C@]34CCC(C)(C)CC3C3=CCC5[C@@]6(C)CC[C@H](OC7OC(C(=O)O)C(O)C(OC8OCC(O)C(O)C8O)C7OC7OC(CO)C(O)C(O)C7O)[C@@](C)(C=O)C6CC[C@@]5(C)[C@]3(C)C[C@H]4O)C(OC3OC(C)C(OC4OCC(O)C(OC5OC(CO)C(O)C(O)C5O)C4O)C(O)C3O)C2O)C(O)C(OC2OCC(O)C(O)C2O)C1O (stereo partly drawn) [Molecule 8] | display activity | increased CMC
CC1OC(OC2C(C)OC(OC(=O)[C@]34CCC(C)(C)CC3C3=CCC5[C@@]6(C)CC[C@H](OC7OC(C(=O)O)C(O)C(OC8OCC(O)C(O)C8O)C7OC7OC(CO)C(O)C(O)C7O)[C@@](C)(CO)C6CC[C@@]5(C)[C@]3(C)C[C@H]4O)C(OC3OC(C)C(OC4OCC(O)C(OC5OC(CO)C(O)C(O)C5O)C4O)C(O)C3O)C2O)C(O)C(OC2OCC(O)C(O)C2O)C1O (stereo partly drawn) [Molecule 10] | have the capacity to enhance the cytotoxic effect | increased CMC
CC1OC(OC2C(C)OC(OC(=O)C34CCC(C)(C)CC3C3=CCC5C6(C)CCC(OC7OC(C(=O)O)C(O)C(OC8OCC(O)C(O)C8O)C7OC7OC(CO)C(O)C(O)C7O)C(C)(C=NNC(=O)CCCCCN7C(=O)C=CC7=O)C6CCC5(C)C3(C)CC4O)C(OC3OC(C)C(OC4OCC(O)C(OC5OC(CO)C(O)C(O)C5O)C4O)C(O)C3O)C2O)C(O)C(OC2OCC(O)C(O)C2O)C1O (stereo not drawn) [Molecule 15] | have the capacity to enhance the cytotoxic effect | increased CMC
CC1OC(OC2C(C)OC(OC(=O)[C@]34CCC(C)(C)CC3C3=CCC5[C@@]6(C)CC[C@H](OC7OC(C(=O)NCCN8C(=O)C=CC8=O)C(O)C(OC8OCC(O)C(O)C8O)C7OC7OC(CO)C(O)C(O)C7O)[C@@](C)(C=O)C6CC[C@@]5(C)[C@]3(C)C[C@H]4O)C(OC3OC(C)C(OC4OCC(O)C(OC5OC(CO)C(O)C(O)C5O)C4O)C(O)C3O)C2O)C(O)C(OC2OCC(O)C(O)C2O)C1O (stereo partly drawn) [Molecule 19] | display activity | 
